Data: US20150209428A1, “PHARMACEUTICAL COMPOSITIONS FOR TOPICAL DELIVERY OF PHOTOSENSITIZERS AND USES THEREOF” (DERMIRA, INC., priority 2012, published 2015)

What was measured:
[1] = Apparent solubility of lemuteporfin in various solvents (HPLC); format: physicochemical
Description: The solubility of lemuteporfin in various solvent compositions is shown in the last column of Table 3. All values were obtained analytically by HPLC analysis.
Solubility results for lemuteporfin indicated maximum solubility in solvent-based formulations containing primarily benzyl alcohol. The amount of lemuteporfin that can be solubilized in benzyl alcohol following heating is approximately 2.5% w/w. The addition of other solvents reduces solubility by approximately the amount of the new solvent introduced. Diethylene glycol monoethyl ether (DGME) is about 20% as efficient at dissolving lemuteporfin as benzyl alcohol.

[2] = Solubility of lemuteporfin in the LTS formulation (stirred, sampled, filtered); format: physicochemical; settings: for Lemuteporfin content (% w/w), solubility in the formulation of Table 5: filtered
Description: The solution was stirred and samples were removed at various time points, and then filtered to determine the amount of undissolved lemuteporfin. The amount of lemuteporfin that dissolved was approximately 0.048%.
Studies were conducted to determine the effect of certain of the LTS excipients on the solubility of lemuteporfin.

efficiency of DGME at dissolving lemuteporfin relative to benzyl alcohol ([1]; DGME versus benzyl alcohol): about 20% | amount of lemuteporfin that can be solubilized in benzyl alcohol ([1]; benzyl alcohol, following heating): approximately 2.5 % w/w | Apparent Solubility, % w/w Lemuteporfin ([1]; solvent % w/w: Benzyl Alcohol 30, Ethanol (190) 70): 0.455 % w/w | Apparent Solubility, % w/w Lemuteporfin ([1]; solvent % w/w: Benzyl Alcohol 30, Oleyl Alcohol 70): 0.166 % w/w | Apparent Solubility, % w/w Lemuteporfin ([1]; solvent % w/w: Benzyl Alcohol 40, Isopropyl Myristate 60): 0.090 % w/w | Apparent Solubility, % w/w Lemuteporfin ([1]; solvent % w/w: Benzyl Alcohol 50, Ethanol (190) 50): 0.453 % w/w | Apparent Solubility, % w/w Lemuteporfin ([1]; solvent % w/w: Benzyl Alcohol 50, Oleic Acid 50): 0.409 % w/w | Apparent Solubility, % w/w Lemuteporfin ([1]; solvent % w/w: Benzyl Alcohol 50, Oleyl Alcohol 50): 0.228 % w/w | Apparent Solubility, % w/w Lemuteporfin ([1]; solvent % w/w: Benzyl Alcohol 50, Propylene Glycol 50): 0.494 % w/w | Apparent Solubility, % w/w Lemuteporfin ([1]; solvent % w/w: Benzyl Alcohol 90, Isopropyl Myristate 10): 2.30 % w/w | Apparent Solubility, % w/w Lemuteporfin ([1]; solvent % w/w: Benzyl Alcohol 90, Oleic Acid 10): 2.33 % w/w | Apparent Solubility, % w/w Lemuteporfin ([1]; solvent % w/w: Benzyl Alcohol 90, Oleyl Alcohol 5, Oleic Acid 5): 2.22 % w/w | Apparent Solubility, % w/w Lemuteporfin ([1]; solvent % w/w: Benzyl Alcohol 90, Oleyl Alcohol 10): 2.24 % w/w | Apparent Solubility, % w/w Lemuteporfin ([1]; solvent % w/w: Benzyl Alcohol 100): 2.55 % w/w | Apparent Solubility, % w/w Lemuteporfin ([1]; solvent % w/w: DGME 45, Benzyl Alcohol 45, Oleyl Alcohol 5, Oleic Acid 5): 1.373 % w/w | Apparent Solubility, % w/w Lemuteporfin ([1]; solvent % w/w: DGME 50, Benzyl Alcohol 15, Oleic Acid 35): 0.230 % w/w | Apparent Solubility, % w/w Lemuteporfin ([1]; solvent % w/w: DGME 50, Benzyl Alcohol 15, Oleyl Alcohol 35): 0.200 % w/w | Apparent Solubility, % w/w Lemuteporfin ([1]; solvent % w/w: DGME 50, Benzyl Alcohol 50): 1.57 % w/w | Apparent Solubility, % w/w Lemuteporfin ([1]; solvent % w/w: DGME 52, Benzyl Alcohol 16, Oleyl Alcohol 16, Oleic Acid 16): 0.210 % w/w | Apparent Solubility, % w/w Lemuteporfin ([1]; solvent % w/w: DGME 65, Oleyl Alcohol 17.5, Oleic Acid 17.5): 0.271 % w/w | Apparent Solubility, % w/w Lemuteporfin ([1]; solvent % w/w: DGME 65, Oleyl Alcohol 35): 0.430 % w/w | Apparent Solubility, % w/w Lemuteporfin ([1]; solvent % w/w: DGME 90, Isopropyl Myristate 10): 0.430 % w/w | Apparent Solubility, % w/w Lemuteporfin ([1]; solvent % w/w: DGME 90, Oleyl Alcohol 5, Oleic Acid 5): 0.420 % w/w | Apparent Solubility, % w/w Lemuteporfin ([1]; solvent % w/w: DGME 90, Oleyl Alcohol 10): 0.420 % w/w | solubility of lemuteporfin in LTS solution system ([2]; isopropyl alcohol removed (data not shown)): 0.07 % w/w | amount of lemuteporfin that dissolved in the Table 5 components ([2]; room temperature): approximately 0.048% | Lemuteporfin content (% w/w), solubility in the formulation of Table 5 ([2]; room temperature, time point 0.17 hours): 0.0241 % w/w | Lemuteporfin content (% w/w), solubility in the formulation of Table 5 ([2]; room temperature, time point 2.47 hours): 0.0482 % w/w | Lemuteporfin content (% w/w), solubility in the formulation of Table 5 ([2]; room temperature, time point 4.37 hours): 0.0453 % w/w | Lemuteporfin content (% w/w), solubility in the formulation of Table 5 ([2]; room temperature, time point 6.37 hours): 0.0463 % w/w | Lemuteporfin content (% w/w), solubility in the formulation of Table 5 ([2]; room temperature, time point 23.5 hours): 0.0370 % w/w | solubility of lemuteporfin in LTS solution system ([2]; with isopropyl alcohol (data not shown)): approximately 0.03 % w/w | solubility of lemuteporfin in LTS solution system ([2]; with polysorbate 80 (data not shown)): 0.037 % w/w | solubility of lemuteporfin in LTS solution system ([2]; without polysorbate 80 (data not shown)): 0.027 % w/w
Substance: lemuteporfin
